Patent US7517998B2, “Non nucleoside reverse transcriptase inhibitors” (priority 2004, dated 2009)

Molecular target: T1, K103NNY181C mutant reverse transcriptase (Human immunodeficiency virus type 1 group M subtype B, UniProt P04585, K690N/Y768C)
T1 construct: mutations that occur in the reverse transcriptase segment of the pol gene
Assay: Reverse transcriptase enzymatic assay (PicoGreen), K103N/Y181C mutant RT
Type: biochemical, HIV-1
Details: enzymatic assay of Example 24
In short: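 HIV-1 RT (2.5 nM final) pre-incubated 15 min at room temperature with inhibitor, then reacted 50 min at 37 °C with poly rC 45 nM, dG15 4.5 nM, dGTP 3.6 μM in Tris/HCl pH 7.8, 1% DMSO. Final inhibitor 10 μM to 0.508 nM; EDTA-quenched, PicoGreen fluorescence read at 485/520 nm.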

[1] = IC50 mut, K103N/Y181C mutant reverse transcriptase
[2] = IC50 mut, mutant reverse transcriptase

| SMILES | IC50 [1] [nM] | IC50 [2] [nM] | also measured |
| --- | --- | --- | --- |
| O=C(CSc1nnnn1-c1ccc(C2CC2)cc1Cl)Nc1ccc(C#CC2(CO)CC2)cc1Cl [Compound 4083] | 29 | – | – |
| CCCC#Cc1ccc(NC(=O)CSc2nnnn2-c2ccc(C(C)(C)C)cc2Cl)c(Cl)c1 [Compound 4009] | 8.9 | – | – |
| CC(C)(C)c1ccc(-n2nnnc2SCC(=O)Nc2ccc(NC(=O)C3CCCCC3)cc2Cl)c(Cl)c1 [Compound 7022] | – | – | IC50 (IC50 mut (nM), mutant (K103N/Y181C) reverse transcriptase): 629 nM |
| Cc1nnc(SCC(=O)Nc2ccc(C#CC(C)(C)COC(N)=O)cc2Cl)n1-c1ccc(C2CC2)cc1Cl [Compound 1011] | – | 21 | – |
| CC(C)(C)c1ccc(-n2nnnc2SCC(=O)Nc2ccc(-c3ccc(OCCN4CCC(C(=O)O)CC4)cc3)cc2Cl)c(Cl)c1 [Compound 2040] | – | 36 | – |
| CC(C)(C#Cc1ccc(NC(=O)CSc2nnnn2-c2ccc(C3CC3)cc2Cl)c(Cl)c1)NC(=O)CN1CCC(C(=O)O)CC1 [Compound 4154] | 10.5 | – | – |
| CC(C)(C)c1ccc(-n2nnnc2SCC(=O)Nc2ccc(OCC(=O)NCCc3ccncc3)cc2Cl)c(Cl)c1 [Compound 5024] | – | 66 | – |
